Source: the Kinase Knowledgebase extract (Sharma et al. 2016)
pIC50: −log10 of the molar value. Values joined by “and” are separate entries in the source; they are usually repeats but may differ in a detail not shown here. Equal values may be shown once.

Tests used:
[1] = target: EGFR (UniProt P00533)
[2] = target: EGFR (human) (UniProt P00533); details: kb
Sequence of EGFR (human) (P00533 whole entry, looked up): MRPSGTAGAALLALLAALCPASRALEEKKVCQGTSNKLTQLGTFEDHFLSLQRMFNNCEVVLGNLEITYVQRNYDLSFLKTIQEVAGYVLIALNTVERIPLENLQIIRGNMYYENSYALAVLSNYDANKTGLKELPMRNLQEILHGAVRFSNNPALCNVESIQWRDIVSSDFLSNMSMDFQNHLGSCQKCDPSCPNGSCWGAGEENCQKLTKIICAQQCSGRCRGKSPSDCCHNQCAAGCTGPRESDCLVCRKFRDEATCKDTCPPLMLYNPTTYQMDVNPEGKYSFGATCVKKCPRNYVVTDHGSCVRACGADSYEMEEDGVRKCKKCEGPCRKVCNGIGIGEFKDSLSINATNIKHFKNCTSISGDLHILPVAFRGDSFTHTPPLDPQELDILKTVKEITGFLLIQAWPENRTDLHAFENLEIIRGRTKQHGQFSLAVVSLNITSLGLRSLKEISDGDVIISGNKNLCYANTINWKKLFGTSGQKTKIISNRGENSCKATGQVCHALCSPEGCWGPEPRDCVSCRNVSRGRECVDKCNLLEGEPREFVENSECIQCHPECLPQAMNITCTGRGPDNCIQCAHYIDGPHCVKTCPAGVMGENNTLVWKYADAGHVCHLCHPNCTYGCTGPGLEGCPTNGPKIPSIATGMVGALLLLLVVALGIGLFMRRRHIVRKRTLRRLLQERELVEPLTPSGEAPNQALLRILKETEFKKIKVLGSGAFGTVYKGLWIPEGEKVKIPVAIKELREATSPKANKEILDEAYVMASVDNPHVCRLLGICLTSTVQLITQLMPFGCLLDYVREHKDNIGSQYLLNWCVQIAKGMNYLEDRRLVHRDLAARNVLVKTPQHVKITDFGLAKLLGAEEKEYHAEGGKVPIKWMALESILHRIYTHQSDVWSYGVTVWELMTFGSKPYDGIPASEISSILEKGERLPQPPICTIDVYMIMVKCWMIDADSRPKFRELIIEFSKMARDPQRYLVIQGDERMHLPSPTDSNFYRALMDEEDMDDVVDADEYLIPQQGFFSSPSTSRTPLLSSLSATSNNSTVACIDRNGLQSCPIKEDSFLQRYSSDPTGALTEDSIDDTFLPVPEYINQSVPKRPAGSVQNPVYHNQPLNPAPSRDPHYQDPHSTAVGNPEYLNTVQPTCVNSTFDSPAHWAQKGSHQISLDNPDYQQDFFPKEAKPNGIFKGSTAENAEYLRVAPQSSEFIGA

Sequence of EGFR (P00533 whole entry, looked up): as above

| Compound | pIC50 [1] | pIC50 [2] |
| --- | --- | --- |
| COc1cc2ncnc(Nc3cccc(Cl)c3F)c2cc1OC1CCN(C(=O)COP(=O)(O)O)CC1 | 7.00 to 9.00 | 7.00 to 9.00 |
| COc1cc2ncnc(Nc3cccc(Cl)c3F)c2cc1OC1CCN(C(=O)CO)CC1 | 8.52 and 7.00 to 9.00 | 7.00 to 9.00 |
